Measurements published in ChEMBL document CHEMBL1201862, “PubChem BioAssay data set” (2004).
Calls of active or inactive are those of the source. Cut-off read from the data, not from the text of the source, for most assays here: actives have a measured EC50 and inactives only a lower limit.

How the values were obtained:
[1] = molecular target: T1, RNA-binding protein pos-1 (Caenorhabditis elegans, UniProt G5EF15); assay: inhibitors of POS-1/mex-3 RNA binding, dose response, biochemical, fluorescence polarization (AID 1964);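 note: purified POS-1 fused to maltose binding protein made in E. coli; potency of compounds blocking POS-1 binding to fluorescent RNA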
T1 sequence (G5EF15 whole entry): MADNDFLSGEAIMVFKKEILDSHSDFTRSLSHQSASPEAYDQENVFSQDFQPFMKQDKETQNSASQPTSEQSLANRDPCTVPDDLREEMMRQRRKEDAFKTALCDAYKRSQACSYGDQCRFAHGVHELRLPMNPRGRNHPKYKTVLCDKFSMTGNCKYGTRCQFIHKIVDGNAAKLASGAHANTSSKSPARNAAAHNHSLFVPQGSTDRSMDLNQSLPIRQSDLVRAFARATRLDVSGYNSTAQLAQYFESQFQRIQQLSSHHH

[2] = molecular target: T2, Zinc finger protein mex-5 (Caenorhabditis elegans, UniProt Q9XUB2); assay: MEX-5/TCR-2 RNA interaction inhibitors, dose response, biochemical, C. elegans, fluorescence polarization (AID 1960)
T2 sequence (Q9XUB2 whole entry): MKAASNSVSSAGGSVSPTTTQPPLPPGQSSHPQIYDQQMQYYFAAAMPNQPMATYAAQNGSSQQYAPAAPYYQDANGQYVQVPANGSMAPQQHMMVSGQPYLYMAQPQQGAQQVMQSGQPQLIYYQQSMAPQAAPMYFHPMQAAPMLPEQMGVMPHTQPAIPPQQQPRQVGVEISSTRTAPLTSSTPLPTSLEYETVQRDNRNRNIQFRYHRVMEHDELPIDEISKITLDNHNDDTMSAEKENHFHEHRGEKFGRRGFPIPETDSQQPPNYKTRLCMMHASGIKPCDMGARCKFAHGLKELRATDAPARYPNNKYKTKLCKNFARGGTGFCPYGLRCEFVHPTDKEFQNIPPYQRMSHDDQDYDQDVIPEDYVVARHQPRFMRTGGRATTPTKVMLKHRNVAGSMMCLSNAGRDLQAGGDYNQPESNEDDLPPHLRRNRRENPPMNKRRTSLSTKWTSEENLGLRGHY

[3] = molecular target: T3, Corticotropin-releasing factor receptor 2/Corticotropin-releasing factor-binding protein (Homo sapiens, UniProt P24387+Q13324); assay: Dose Response confirmation of uHTS hits for small molecule antagonists of the CRF-binding protein and CRF-R2 receptor complex.; format: functional; settings: read-out: IC50_Mean
T3 sequence (Q13324 whole entry): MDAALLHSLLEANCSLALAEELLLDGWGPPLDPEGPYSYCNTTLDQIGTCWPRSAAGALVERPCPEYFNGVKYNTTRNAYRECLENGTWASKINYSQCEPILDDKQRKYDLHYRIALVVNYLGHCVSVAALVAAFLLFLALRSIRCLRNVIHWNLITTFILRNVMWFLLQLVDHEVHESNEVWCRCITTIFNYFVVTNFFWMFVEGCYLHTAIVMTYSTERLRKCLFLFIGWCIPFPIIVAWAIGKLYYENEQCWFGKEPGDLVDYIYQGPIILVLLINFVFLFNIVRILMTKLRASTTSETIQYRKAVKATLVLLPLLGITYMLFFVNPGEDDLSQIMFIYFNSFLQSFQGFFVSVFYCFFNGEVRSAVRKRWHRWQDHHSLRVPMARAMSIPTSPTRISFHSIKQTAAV
T3 sequence (P24387 whole entry): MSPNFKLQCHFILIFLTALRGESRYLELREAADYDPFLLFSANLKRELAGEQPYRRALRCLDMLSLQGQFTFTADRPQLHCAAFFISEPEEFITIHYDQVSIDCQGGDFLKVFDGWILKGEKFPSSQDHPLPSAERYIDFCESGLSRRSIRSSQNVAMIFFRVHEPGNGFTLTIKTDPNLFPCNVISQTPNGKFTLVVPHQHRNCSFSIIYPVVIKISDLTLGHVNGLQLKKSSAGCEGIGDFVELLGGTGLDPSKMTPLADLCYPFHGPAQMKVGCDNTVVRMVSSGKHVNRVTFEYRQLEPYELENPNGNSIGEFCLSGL

[4] = molecular target: T3, Corticotropin-releasing factor receptor 2/Corticotropin-releasing factor-binding protein; assay: activators of CRF receptor 2 with binding protein – uHTS hits, confirmation (AID 602473); format: functional; settings: read-out: EC50_Mean
[5] = molecular target: T4, Ubiquitin-conjugating enzyme E2 N (Homo sapiens, UniProt P61088); format: functional;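 note: Dose-response confirmation in a TR-FRET assay detecting UBC13-driven polyubiquitin chain formation, inhibition measured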
T4 sequence (P61088 whole entry): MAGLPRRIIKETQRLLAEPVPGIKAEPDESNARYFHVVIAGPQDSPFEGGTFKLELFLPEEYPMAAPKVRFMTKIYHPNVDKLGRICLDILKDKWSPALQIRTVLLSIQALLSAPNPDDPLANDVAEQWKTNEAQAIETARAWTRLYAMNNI

[6] = control 3'UTR Renilla luciferase suppression, dose response, counter-screen for Shn3 inhibitor project, cell-based, Clone20-Shn3RL, cherry-picked (AID 624133); format: functional
Protein RecA = molecular target: T5, Protein RecA (Mycobacterium tuberculosis, UniProt P9WHJ3); assay: Fluorescence Cell-Free Homogeneous Dose Retest to Identify Inhibitors of RecA-Intein Splicing Activity. [Related pubchem assays (depositor defined):AID2097, AID2223, AID489010, AID492950]; format: functional
T5 sequence (P9WHJ3 whole entry): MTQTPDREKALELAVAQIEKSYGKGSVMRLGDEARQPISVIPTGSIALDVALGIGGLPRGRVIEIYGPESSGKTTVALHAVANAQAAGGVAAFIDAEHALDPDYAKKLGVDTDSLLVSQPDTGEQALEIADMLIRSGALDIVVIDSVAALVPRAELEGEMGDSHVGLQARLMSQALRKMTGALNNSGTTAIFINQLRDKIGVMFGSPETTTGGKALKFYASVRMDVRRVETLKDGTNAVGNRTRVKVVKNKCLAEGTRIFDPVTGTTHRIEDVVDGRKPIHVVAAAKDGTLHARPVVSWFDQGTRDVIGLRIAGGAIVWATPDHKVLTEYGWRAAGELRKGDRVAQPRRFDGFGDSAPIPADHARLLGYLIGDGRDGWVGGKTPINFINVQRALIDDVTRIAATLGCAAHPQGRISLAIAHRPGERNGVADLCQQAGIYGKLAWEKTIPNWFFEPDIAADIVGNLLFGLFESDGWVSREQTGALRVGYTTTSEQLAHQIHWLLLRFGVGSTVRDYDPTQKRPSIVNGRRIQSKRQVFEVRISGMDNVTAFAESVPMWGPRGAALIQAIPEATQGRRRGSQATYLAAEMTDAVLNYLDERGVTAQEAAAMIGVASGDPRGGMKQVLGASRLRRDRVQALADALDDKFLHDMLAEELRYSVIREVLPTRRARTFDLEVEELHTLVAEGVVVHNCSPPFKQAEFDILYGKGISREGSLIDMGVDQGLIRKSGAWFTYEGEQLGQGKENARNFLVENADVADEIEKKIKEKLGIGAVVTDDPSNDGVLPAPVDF

[7] = HepG2 cell cytotoxicity, dose response, cytotoxicity control for Shn3 inhibitor project, CellTiter-Glo, cherry-picked (AID 624134); format: functional, cell-based
[8] = molecular target: Heat shock protein HSP 90-alpha (Homo sapiens, UniProt P07900); format: functional, organism-based
[9] = C. albicans growth with fluconazole, confirmation, fluorescence, retest (AID 2467); format: functional, cell-based
[10] = NIH-3T3 fibroblast cytotoxicity, dose response, cytotoxicity control, cell-based, fluorescence, Alamar Blue, secondary assay (AID 2327); format: functional;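 note: NIH-3T3 mouse fibroblasts cultured with fluconazole at 8 µg/mL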
[11] = molecular target: T6, Replicative DNA helicase DnaB (Mycobacterium tuberculosis, UniProt P9WMR3); assay: DnaB intein splicing inhibitors, dose response, biochemical, cell-free fluorescence (AID 449749); format: functional
T6 sequence (P9WMR3 whole entry): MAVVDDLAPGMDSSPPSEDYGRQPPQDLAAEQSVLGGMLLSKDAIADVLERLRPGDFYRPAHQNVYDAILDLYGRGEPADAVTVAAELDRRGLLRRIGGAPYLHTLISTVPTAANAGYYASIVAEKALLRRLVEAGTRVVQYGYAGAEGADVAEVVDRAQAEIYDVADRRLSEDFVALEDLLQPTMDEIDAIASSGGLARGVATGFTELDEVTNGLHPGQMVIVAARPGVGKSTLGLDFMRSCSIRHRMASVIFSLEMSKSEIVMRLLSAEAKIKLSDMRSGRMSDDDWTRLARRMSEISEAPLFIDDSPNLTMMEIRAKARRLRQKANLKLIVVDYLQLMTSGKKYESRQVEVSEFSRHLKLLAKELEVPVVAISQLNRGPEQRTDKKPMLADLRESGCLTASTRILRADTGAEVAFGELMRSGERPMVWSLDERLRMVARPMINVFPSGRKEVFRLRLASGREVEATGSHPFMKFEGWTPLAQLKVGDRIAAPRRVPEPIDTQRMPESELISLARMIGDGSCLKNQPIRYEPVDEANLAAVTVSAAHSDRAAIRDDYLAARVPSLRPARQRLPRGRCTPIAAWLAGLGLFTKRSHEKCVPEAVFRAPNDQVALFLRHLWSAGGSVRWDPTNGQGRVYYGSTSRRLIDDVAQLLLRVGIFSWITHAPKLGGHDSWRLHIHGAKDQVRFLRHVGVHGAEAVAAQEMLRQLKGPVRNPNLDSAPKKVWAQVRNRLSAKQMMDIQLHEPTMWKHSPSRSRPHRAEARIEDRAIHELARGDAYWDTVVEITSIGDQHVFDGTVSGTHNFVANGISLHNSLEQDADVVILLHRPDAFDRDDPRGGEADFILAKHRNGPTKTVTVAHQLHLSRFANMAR

[12] = Shn3 3'UTR reporter inhibitors, dose response, cell-based, Clone20 osteoblasts, firefly luciferase, cherry-picked (AID 624132); format: functional;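 note: firefly luciferase luminescence from reporter carrying the Shn3 3'UTR in osteoblasts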
Streptokinase A = molecular target: T7, Streptokinase A (Streptococcus pyogenes serotype M1, UniProt P10520); assay: S. pyogenes streptokinase expression inhibitors, potency, dose response, plasminogen activation absorbance, OD405 (AID 1914); format: functional, Streptococcus pyogenes M1 GAS;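 note: secreted streptokinase activity via plasminogen activation per viability signal from cell pellet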
T7 sequence (P10520 whole entry): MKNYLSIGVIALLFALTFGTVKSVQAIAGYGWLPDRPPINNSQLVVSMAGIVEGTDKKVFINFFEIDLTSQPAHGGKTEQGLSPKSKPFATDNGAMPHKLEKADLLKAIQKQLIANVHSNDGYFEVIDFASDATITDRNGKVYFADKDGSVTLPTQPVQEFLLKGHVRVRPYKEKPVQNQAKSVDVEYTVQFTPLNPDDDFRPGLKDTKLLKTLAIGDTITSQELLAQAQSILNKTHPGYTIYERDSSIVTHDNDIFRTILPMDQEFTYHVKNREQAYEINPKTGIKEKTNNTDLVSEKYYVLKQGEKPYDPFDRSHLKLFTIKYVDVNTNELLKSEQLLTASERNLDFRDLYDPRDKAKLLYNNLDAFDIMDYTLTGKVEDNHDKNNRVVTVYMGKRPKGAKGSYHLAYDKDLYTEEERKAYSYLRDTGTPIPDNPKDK

Streptococcus = assay: Group A Streptococcus viability loss, dose response, counter-screen for streptokinase expression inhibitor project, luminescence, BacTiterGlo (AID 1915); format: functional, organism-based;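 note: potency for reduction of bacterial viability or growth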
[13] = test system: Streptococcus sp. 'group A'; assay: growth inhibition of control SK(-) GAS strain, dose response, counter-screen for streptokinase expression inhibitor project, luminescence, kanamycin, BacTiterGlo, confirmation (AID 1900); format: functional, organism-based
[14] = Luminescence Cell-Based Dose Retest to Confirm Inhibitors of Cancer Stem Cells. [Related pubchem assays (depositor defined):AID2717, AID2721]; format: functional, Homo sapiens

CN(C)c1ccc(-c2nnc(-c3ccc(S(=O)(=O)C(F)F)cc3)o2)cc1
EC50 [1]: 55.7 µM (inconclusive)
EC50 [2]: 31.4 µM (inconclusive)

Cc1ccc(-n2c(Cl)c(Cl)[nH]c(=O)c2=O)cc1
IC50 [3]: > 47.1 µM (inactive)
EC50 [4]: > 53 µM (inactive)

O=C1/C(=C/c2cccc([N+](=O)[O-])c2)CSc2ccc(Cl)cc21
IC50 [5]: > 20 µM (inactive)

CN1CCN(C(c2ccc(Br)cc2)c2cc(Cl)c3cccnc3c2O)CC1 (configuration not stated)
AC50 [6]: 6.28 µM (active)
EC50 (Protein RecA): 3.22 µM (active)
AC50 [7]: 34.9 µM (active)
AC50 [8]: 0.609 µM (active)
EC50 [9]: 0.492 µM (active)
EC50 [10]: 4.78 µM (inconclusive)
AC50 [11]: 14.3 µM (active)
AC50 [12]: 3.61 µM (active)

COc1ccc(OCC(=O)NNC(=S)NC(=O)c2ccc([N+](=O)[O-])cc2)cc1
IC50 [5]: > 20 µM (inactive)

CCc1nnc(N=C(S)Nc2ccccc2)s1
IC50 [3]: > 47.1 µM (inactive)
EC50 [4]: > 53 µM (inactive)

O=C(C[n+]1nc(CNc2ccc(Br)cc2)n2c1CCCCC2)c1ccc([N+](=O)[O-])cc1
IC50 [5]: > 20 µM (inactive)

C#CCOCCOCCOCCNc1nc(N2CCN(C(=O)[C@H]([C@@H](C)CC)n3cc(CCCN=C(N)N)nn3)CC2)nc(N2CCN(C(=O)[C@H](CCCCN)n3cc(CCCC)nn3)CC2)n1
IC50 [5]: > 20 µM (inactive)

COc1cc(Cl)c(C)cc1NC(=O)CSc1ccc(C)cc1
IC50 [3]: > 47.1 µM (inactive)
EC50 [4]: > 53 µM (inactive)

C=CCOn1c(=O)c(-c2cc3ccccc3o2)[n+]([O-])c2ccccc21
EC50 [1]: 28.3 µM (inconclusive)
EC50 [2]: 69.7 µM (inconclusive)

CC1CCN(c2nc3ccccc3nc2C(C#N)C(=O)NC2CCCCC2)CC1 (configuration not stated)
EC50 [1]: > 300 µM (not active)
EC50 [2]: > 300 µM (not active)
EC50 (Streptokinase A): 26.2 µM (active)
EC50 (Streptococcus): 18.3 µM (active)
EC50 ([13]; read-out: EC50): 7.52 µM (active)

Cc1c(CN2CCCCC2)c(O)n(CCCO)c(=O)c1C#N
EC50 [1]: > 300 µM (not active)
EC50 [2]: > 300 µM (not active)

C=CCNC(S)=NNC(=O)c1ccc(OCC)cc1
IC50 [3]: > 47.1 µM (inactive)
EC50 [4]: > 53 µM (inactive)

CC1CCCN(CCCNC(=O)CN2C(=O)CSc3ccc(S(=O)(=O)N4CCOCC4)cc32)C1 (configuration not stated)
IC50 [3]: > 47.1 µM (inactive)
EC50 [4]: > 53 µM (inactive)

CC(NC(=O)COC(=O)C1(C)CC1(Cl)Cl)c1ccccc1 (configuration not stated)
IC50 [3]: > 47.1 µM (inactive)
EC50 [4]: > 53 µM (inactive)

CCOC(=O)/C=c1\s/c(=C\c2ccc(C#N)cc2)c(=O)n1CC(=O)NCc1ccco1
EC50 [1]: > 300 µM (not active)
EC50 [2]: > 300 µM (not active)

CC/C(=C(\c1ccccc1)c1ccc(OCCN(C)C)cc1)c1ccccc1 [TAMOXIFEN]
EC50 (Streptokinase A): > 150 µM (not active)
IC50 [5]: > 20 µM (inactive)
EC50 (Streptococcus): 21.8 µM (active)
AC50 [14]: 5.52 µM (active)
EC50 [13]: 6.5 µM (active)
